In US6303596A, “Use of taurolidine for treatment of leukemias” (priority 2000, dated 2001):

What was measured:
K-562 = assay: growth rate after taurolidine treatment, K-562; assay type: cell-based, human
Method: FIGS. 6A and 6B depict cell viability and growth rates for K562 cell line following taurolidine treatment, in terms of % trypan blue negative cells and % cell number, respectively. Cells were treated with various concentrations of taurolidine for 4 hours in AIM-V+0.01% BCS. After aliquots were collected for LDH assay, the remainder of the culture was rinsed in HBSS and resuspended in RPMI+10% BCS without taurolidine. Counts of trypan blue-negative cells (FIG. 6A), and total cell number (FIG. 6B), were recorded daily thereafter (with the measurement at Day 1 being made immediately after the 4 hour taurolidine treatment). Conditions were: no treatment (open circles); 25 μg/ml taurolidine (closed circles); 50 μg/ml taurolidine (open squares); 100 μg/ml taurolidine (closed squares); and vehicle alone (closed triangles). Doubling times were determined under each condition, and expressed as a percentage of the rate of doubling of untreated cells. These values are located to the right of the growth curves in (FIG. 6B). Cells were subcultured when they reached a concentration of 6×10^5 cells/ml. Data are mean±SEM of three experiments.
In these experiments, integrity of cell membranes following taurolidine treatment was assessed by exclusion of trypan blue and by measuring the release of LDH in MM6, K-562, HL-60, and REH cells. Since BCS contains significant amounts of LDH, these experiments were conducted on cells cultured in AIM-V+0.01% BCS. Four hour treatment of cells was conducted in AIM-V containing 0.01% BCS in order to allow subsequent LDH assay without interference from BCS (which occurs in when normal culture medium, containing 10% BCS, is used). Thus, MM6 cells (5×10^5 cells/ml) were treated with taurolidine for four hours in AIM-V+0.01% BCS, after which an aliquot of the cell suspension was removed for measurement of LDH release. A parallel aliquot of cells was lysed by three cycles of freeze/thaw and the quantity of LDH released was taken to be 100%. Remaining cells were rinsed in HBSS and resuspended in growth medium for measurement of growth rates.
HL-60 cells treated with 50 μl taurolidine. In these samples, LDH present in the culture medium was 8.3±2.3% of that released by completely lysed cells, compared with 2.3±0.8% measured in control cultures. […] After 4 hour treatment, cells were rinsed and returned to growth medium and monitored for viability and growth over the following 3 days. Concentrations of taurolidine from 25 μg/ml to 100 μ/ml were used in order to highlight differences in sensitivity of cell lines to taurolidine.
^b Growth rate was measured over three days following treatment.

MM6 = assay: TUNEL / propidium iodide flow cytometry, MM6; assay type: cell-based, human; details: for % TUNEL-positive: MM6, taurolidine 100 μg/ml or anisomycin 1 μg/ml for 4 h, assayed at 6 hours, mean ± SD
Method: In the second method, DNA fragmentation was detected via TUNEL assay according to the manufacturer's instructions. With this methodology, 2×10^6 cells were fixed with 2% paraformaldehyde, permeabilized with 0.1% Triton X-100/0.1% citrate, incubated at 37° C. with terminal deoxynucleotidyl transferase and FITC-dUTP, rinsed and analyzed by flow cytometry. Enhanced FITC signal indicates apoptosis-specific DNA fragmentation. Gavriali, et al, "Identification of programmed cell death in situ via specific labeling of nuclear DNA fragmentation," J Cell Biol 119:493 (1992). Parallel aliquots of unfixed cells were treated with PI and FITC-conjugated anti-CD14 and analyzed by flow cytometry, in order to identify cells with permeable cell membranes (since PI binds to DNA but is excluded from cells with intact plasma membranes) and also to determine the cell-specificity of the apoptotic signal.
Consequently, TUNEL analysis was performed on PBMC at 3, 6, or 24 hours after treatment with 25 to 100 μg/ml taurolidine. Aliquots of harvested cells were also labeled with FITC-conjugated anti-CD14 antibodies and PI, which allowed identification of monocytes (CD14-positive cells) and cells with damaged cell membranes (PI-positive cells). […] Thus, nearly 75% of the monocytes were TUNEL-positive following treatment with 100 μg/ml taurolidine for six hours. Confirmation that the TUNEL-positive cells were monocytes was obtained by staining with FITC-conjugated anti-CD14.
In another study, TUNEL assays were performed on all cell lines 6 hours after cells were initially exposed to taurolidine (cells were treated for 4 hours, rinsed, and then incubated for 2 more hours before TUNEL assay was performed).
. Taurolidine and anisomycin induced apoptosis in MM6, HL-60, and Jurkat cells (Table VIII). MM6 and HL-60 cells were similarly effected, with >80% TUNEL-positive cells after 6 hours. Jurkat cells were less sensitive, with approximately 50% of cells induced to undergo apoptosis after taurolidine treatment. After 6 hours, 73% of anisomycin-treated REH cells were apoptotic, with less than 20% of taurolidine-treated REH cells being TUNEL-positive. However, assay of cells 24 hours after
^a Analysis by flow cytometry after staining cells with propidium
iodide and processing for TUNEL.
Data are percent of total cell-size events, and are expressed as mean ±
Cells were treated for 4 hours with taurolidine (100 μg/ml) or
anisomycin (1 μg/ml), and then assayed at 6 hours.

[1] = septic patients, up to 20 grams for 2-5 consecutive days; cited from earlier work

O=S1(=O)CCN(CN2CCS(=O)(=O)NC2)CN1 [taurolidine, 4,4'-methylenebis(perhydro-1,2,4-thiadiazin 1,1-dioxide)]
activity at 50 µg/mL (K-562; Homo sapiens, K562, 72 h, K-562, 50 μg/ml for 4 h, growth over three days, read-out: growth rate (% of control)): 52%
activity at 100 µg/mL (K-562; Homo sapiens, K562, 72 h, K-562, 100 μg/ml for 4 h, growth over three days, read-out: growth rate (% of control)): 0%
sensitivity of cell growth among cell lines (K-562; K562): least affected
growth after taurolidine treatment (K-562; K562, 50 μg/ml or greater): inhibition of growth
cytotoxicity at 50 µg/mL (MM6; Homo sapiens, MONO-MAC-6, 3 h, read-out: % Propidium Iodide Positive Cells): 7%
% TUNEL-positive (MM6): 80.9 ± 7.7%
% TUNEL-positive (MM6; listed as Taurolidine): > 80%
onset of apoptosis after treatment (MM6; MM6 cells): detectable within four to six hours
% TUNEL-Negative Cells (MM6; Mono Mac 6, 50 μg/ml, 3 hours): 44%
toxicity in humans [1]: has not been associated with toxicity
